Laboratory results taken from patent US20090209535A1, “6-ETHER/THIOETHER-PURINES AS TOPOISOMERASE II CATALYTIC INHIBITORS AND THEIR USE IN THERAPY” (TOPOTARGET A/S, priority 2005, published 2009).
Structures can show the parent of a compound that is named as a salt. Where two headings read alike, the source gives them in different places. One block for each molecule: values may come before it.

Experiments:
[1] = target: T1, wild-type human topoisomerase II α (Homo sapiens, UniProt P11388); assay: Topoisomerase II DNA strand passage assay (kDNA decatenation), wild-type enzyme; format: biochemical; details: for inhibition of DNA strand passage (decatenation) activity, in words: wild-type enzyme, FIG. 2-A and FIG. 5
T1 construct: made in house; host or cells: yeast (over-expressing yeast cells)
Procedure: Topoisomerase II catalytic activity (DNA strand passage activity) was measured by using a filter-based kDNA decatenation assay as described in Jensen et al., 2002. Briefly, 200 ng ^3H labelled kDNA isolated from C. fasciculata was incubated with increasing concentrations of drug in 20 μL reaction buffer containing 10 mM TRIS-HCl pH 7.7, 50 mM NaCl, 50 mM KCl, 5 mM MgCl2, 1 mM EDTA, 15 μg/mL BSA and 1 mM ATP using two units of purified wild-type or Y165S mutant topoisomerase II α for 20 minutes at 37° C. (where one unit of activity is defined as the amount of enzyme required for complete decatenation in the absence of drug). After addition of 5× stop buffer (5% Sarkosyl, 0.0025% bromophenol blue, and 50% glycerol), unprocessed kDNA network and decatenated DNA mini-circles were separated by filtering, and the amount of unprocessed kDNA in each reaction was determined by scintillation counting.
FIG. 2 describes the results of studies of the inhibition of topoisomerase II DNA strand passage activity by increasing concentrations of NSC 35866. Inhibition of human topoisomerase II α DNA strand passage activity was assessed by decatenation of tritium-labelled Crithidia fasiculata kDNA using a filter-based assay to separate unprocessed kDNA network from decatenated mini-circles. […] Error bars represent SEM of three independent experiments in panel A and two independent experiments in panel B.
Inhibition of human topoisomerase II α DNA strand passage activity was determined by decatenation of tritium labelled Crithidia fasiculata kDNA as described for FIG. 2. Error bars represent SEM of 3 or 4 independent experiments.

human SCLC OC—NYH cells [2] = assay: Clonogenic assay, antagonism of etoposide-induced cytotoxicity; format: cell-based
Procedure: Cells were then plated in 0.3% agar in 6 cm petri dishes with sheep red blood cells as feeder layer in triplicate, and were incubated under the same conditions as described above. Plates were counted after 3 weeks.
20 μM etoposide was then added, and the cells were incubated for one hour. Next, the drugs were washed out and the cells were plated and counted after three weeks as described herein.

topoisomerase II α = topoisomerase II α (Homo sapiens, UniProt P11388); assay: Topoisomerase II ATPase assay (coupled, NADH oxidation); format: biochemical; parameters: made in house; host or cells: yeast (over-expressing yeast cells); details: for inhibition of ATPase activity in the presence of DTT, in words: 10 mM DTT in the reaction buffer
Procedure: The reaction was monitored spectrophotometrically at 340 nm using a Bio-Tek EL808 Ultra Micro plate Reader connected to a computer with KC4 Software installed (Bio-Tek Instruments, U.S.). The change in absorbance was related to ADP production using A340^1M=6220 cm^−1. […] The rate of ATP hydrolysis, V, was determined from the linear part of the curve.
The steady-state rate of ATP hydrolysis was determined using a coupled ATPase assay as described herein. […] Error bars represent SEM of two independent experiments each performed in duplicate.
The steady-state rate of ATP hydrolysis was determined as described in for FIG. 3 and as described herein. In this analysis, the rate of ATP hydrolysis in the absence of drug was set to one in all experiments. Error bars represent SEM of 2 or 3 independent experiments each preformed in duplicate.

human SCLC OC—NYH cells [3] = assay: Alkaline elution assay (DNA breaks); format: cell-based; details: 3 μM
Procedure: Alkaline elution assay was performed as described in Kohn et al., 1976 with modifications as described in Sehested et al., 1998. Briefly, to assess the ability of NSC 35866 to protect against etoposide-induced DNA breaks, cells were incubated with increasing concentrations of NSC 35866 for 10 minutes, before 3 μM etoposide was added to the samples. The cells were then co-incubated with 3 μM etoposide along with the same concentrations of NSC 35866 for 60 minutes. Some samples contained no etoposide in order to assess whether NSC 35866 induced DNA breaks by itself. After incubation with drug, cells were lysed and the DNA fragments eluted. DNA in the experimental OC—NYH cells was metabolically labelled by ^14C-thymidine incorporation while DNA in the internal control L1210 cells was metabolically labelled by ^3H-thymidine incorporation.
FIG. 9 describes the results of studies of the ability of NSC 35866 to antagonise DNA breaks induced by etoposide in human SCLC OC—NYH cells in a dose dependent manner. Alkaline DNA elution was used to detect DNA fragmentation induced by 3 μM etoposide in the presence of increasing concentrations of NSC 35866 as described herein. H202 treated mouse leukemic L1210 cells were used as internal control for DNA fragmentation. The DNA of the experimental OC—NYH cells was ^14C-labelled while the DNA of the L1210 cells was 3H-labelled.

[4] = target: T2, human topoisomerase II α-DNA covalent complexes (Homo sapiens, UniProt P11388); assay: Topoisomerase II DNA cleavage assay (phenol-chloroform extraction, Δcpm); format: biochemical
T2 construct: made in house; host or cells: yeast (over-expressing yeast cells)
Source text: In order to determine the ability of NSC 35866 to increase the level of topoisomerase II-DNA covalent complexes on DNA in vitro, a new and highly sensitive topoisomerase II DNA cleavage assay having a numeric readout was developed. […] The DNA substrate is a 950 bp linear ^3H-labelled DNA synthesized by PCR in the presence of ^3H-dATP. […] The DNA fragment was isolated from unincorporated dNTPs by ethanol precipitation at 0.3 M NaCl, followed by washing in 70% ethanol. The specific activity of the fragment was typically 10,000-20,000 cpm/μg. Before starting the assay, a drug dilution series comprising 10× the final drug concentration was made. Reaction mixtures containing 100 ng of the 950 bp linear ^3H-labelled DNA, 300 ng human topoisomerase II q, topoisomerase II cleavage buffer (10 mM TRIS-HCL pH 7.9, 50 mM NaCl, 50 mM KCl, 5 mM MgCl2, 1 mM EDTA, 15 μg/mL BSA and 1 mM Na2ATP), and increasing concentrations of drug in 50 μL reaction volumes were then incubated 10 minutes at 37° C. A “no topoisomerase II” sample and a “no drug” sample were always included as controls. Next, the cleavable complex was trapped by adding 5 μL 10% SDS. After vigorous vortexing, 45 uL TE buffer, pH=8.0, was added to obtain 100 μL per sample. 100 μL phenol:chloroform:isoamyl alcohol (25:24:1) equilibrated with TE buffer, pH=8.0, was then added, and the samples were vortexed vigorously for 30 seconds. Finally, the samples were centrifuged at 20,000 g for 2 minutes and 90 μL of the upper water phase was used for scintillation counting using 15 mL of Ultima gold scintillation fluid (Packard).
In order to establish whether NSC 35866 inhibits the DNA strand passage reaction of topoisomerase II by stabilising a covalent reaction intermediate, a new and highly sensitive topoisomerase II DNA cleavage assay having a numeric read-out was developed. This assay is based on the fact that after extraction with phenol-chloroform, protein-bound DNA is removed from the water phase, while naked DNA remains in the water phase. […] Consequently, in reactions containing topoisomerase II and linear DNA, the ability of compounds to remove DNA from the water phase after phenol-chloroform extraction should reflect their potency as topoisomerase II poisons. This assay was first validated by incubating 100 ng of a linear 950 bp PCR DNA fragment with 300 ng of purified human topoisomerase II α in the presence of increasing concentrations of the etoposide and m-AMSA. The DNA fragment was ^3H labelled by performing PCR in the presence of ^3H-dATP. In these experiments, a “no topoisomerase II” sample was always included to determine the level of radioactivity (DNA) retained in the water-phase when no enzyme is present. Within each experiment, the CPM values retained in the water phase in the topoisomerase II reactions were then subtracted from this background CPM value to give Δcpm. Consequently, the Δcpm values of samples with no drug added represent the background level of topoisomerase II-DNA covalent complexes present in the reaction mixture under the assay conditions, while the Δcpm levels in the presence of drugs represent the levels of poison-induced topoisomerase II-DNA covalent complexes.

[5] = in the presence of DNA (DNA-stimulated), read-out: IC50, inhibition of ATPase activity
[6] = measured in the absence of DTT, read-out: IC50

T2 sequence (P11388 whole entry, one chain of several): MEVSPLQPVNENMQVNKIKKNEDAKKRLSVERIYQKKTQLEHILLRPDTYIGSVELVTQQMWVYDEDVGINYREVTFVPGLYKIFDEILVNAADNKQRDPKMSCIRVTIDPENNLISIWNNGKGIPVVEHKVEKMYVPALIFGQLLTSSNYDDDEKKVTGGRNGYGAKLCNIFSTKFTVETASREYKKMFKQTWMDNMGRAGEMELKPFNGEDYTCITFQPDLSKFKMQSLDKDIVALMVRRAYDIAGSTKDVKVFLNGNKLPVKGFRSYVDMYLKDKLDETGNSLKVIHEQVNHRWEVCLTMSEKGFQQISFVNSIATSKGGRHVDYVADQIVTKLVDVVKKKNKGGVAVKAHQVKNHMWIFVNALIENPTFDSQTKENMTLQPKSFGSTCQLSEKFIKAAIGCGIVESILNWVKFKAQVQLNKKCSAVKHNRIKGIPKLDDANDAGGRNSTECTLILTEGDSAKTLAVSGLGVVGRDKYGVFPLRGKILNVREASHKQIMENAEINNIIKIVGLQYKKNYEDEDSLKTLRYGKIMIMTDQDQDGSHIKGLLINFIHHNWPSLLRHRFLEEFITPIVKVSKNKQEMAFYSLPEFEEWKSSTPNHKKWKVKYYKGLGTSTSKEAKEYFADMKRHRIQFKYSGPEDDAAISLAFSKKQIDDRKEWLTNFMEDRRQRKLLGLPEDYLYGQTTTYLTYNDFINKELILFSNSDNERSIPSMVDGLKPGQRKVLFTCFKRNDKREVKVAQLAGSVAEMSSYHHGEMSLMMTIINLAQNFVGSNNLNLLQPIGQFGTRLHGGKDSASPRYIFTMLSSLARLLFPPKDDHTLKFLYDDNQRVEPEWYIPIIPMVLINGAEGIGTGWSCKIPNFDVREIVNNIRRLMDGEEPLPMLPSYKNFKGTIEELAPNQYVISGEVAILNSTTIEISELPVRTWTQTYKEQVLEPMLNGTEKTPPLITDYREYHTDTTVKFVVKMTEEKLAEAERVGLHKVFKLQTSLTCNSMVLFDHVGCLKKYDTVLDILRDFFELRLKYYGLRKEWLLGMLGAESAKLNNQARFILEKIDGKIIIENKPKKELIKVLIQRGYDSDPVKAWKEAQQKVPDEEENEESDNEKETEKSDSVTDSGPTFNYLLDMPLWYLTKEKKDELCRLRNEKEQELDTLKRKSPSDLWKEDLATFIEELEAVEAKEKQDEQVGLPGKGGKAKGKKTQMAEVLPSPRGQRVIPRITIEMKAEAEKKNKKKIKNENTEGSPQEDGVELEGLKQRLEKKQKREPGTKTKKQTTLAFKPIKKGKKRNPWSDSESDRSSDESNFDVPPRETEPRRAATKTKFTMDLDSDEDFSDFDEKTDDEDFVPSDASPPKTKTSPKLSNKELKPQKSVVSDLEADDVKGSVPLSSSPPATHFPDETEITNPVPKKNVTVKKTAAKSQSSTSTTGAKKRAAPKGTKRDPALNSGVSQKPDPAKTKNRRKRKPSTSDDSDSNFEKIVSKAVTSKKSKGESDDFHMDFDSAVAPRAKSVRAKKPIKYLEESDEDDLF
topoisomerase II α, sequence (P11388 whole entry): as the sequence (P11388 whole entry, one chain of several) above
T1 sequence (P11388 whole entry): as the sequence (P11388 whole entry, one chain of several) above

IC50 (topoisomerase II α; [5]): ~3 µM
Compound: S=c1[nH]c(=S)c2[nH]cnc2[nH]1 [2,6-dithiopurine]
inhibition of DNA strand passage (decatenation) activity, in words [1]: an effect between that of the two 6-substituted thiopurines | effect on the level of etoposide-induced cytotoxicity, in words (human SCLC OC—NYH cells [2]; concentrations up to 30 μM): no detectable effect

inhibition of DNA strand passage (decatenation) activity, in words [1]: virtually no effect | IC50 (topoisomerase II α; [5]): ~3 µM
Compound: Sc1ncc2nc[nH]c2n1 [2-thiopurine]
effect on the level of etoposide-induced cytotoxicity, in words (human SCLC OC—NYH cells [2]; concentrations up to 30 μM): no detectable effect

inhibitory effect on ATPase reaction, in words (topoisomerase II α; concentration not given): no inhibitory effect
Compound: Nc1nc(Cl)c2nc[nH]c2n1 [6-chloroguanine, reference compound]

Compound: CSc1nc(N)nc2nc[nH]c12 [6-methylthioguanine]
inhibition of DNA strand passage (decatenation) activity, in words [1]: almost no inhibition of decatenation activity | effect on the level of etoposide-induced cytotoxicity, in words (human SCLC OC—NYH cells [2]; concentrations up to 500 μM): no detectable effect | inhibitory effect on ATPase reaction, in words (topoisomerase II α; concentration not given): capable of inhibiting topoisomerase II ATPase activity

IC50 ([1]; FIG. 5, read-out: half-maximal inhibition of DNA strand passage activity): ~50 µM | IC50 (topoisomerase II α; [5]): ~30 µM
Compound: Nc1nc2nc[nH]c2c(=S)[nH]1 [6-thioguanine, reference compound]

concentration at which maximal inhibition of DNA strand passage activity is reached ([1]; FIG. 5): > 1000 µM | IC50 (topoisomerase II α; [5]): ~100 µM
Compound: Sc1ncnc2nc[nH]c12 [6-thiopurine]
effect on the level of etoposide-induced cytotoxicity, in words (human SCLC OC—NYH cells [2]; concentrations up to 300 μM): no detectable effect

inhibitory effect on ATPase reaction, in words (topoisomerase II α; concentrations up to 300 μM): no inhibitory effect
Compound: Nc1nc2c(ncn2Cc2ccccc2)c(=O)[nH]1 [9-benzylguanine, reference compound]

IC50 (topoisomerase II α; [6]): 13.4 µM
Compound: Nc1nc(SCc2ccccc2)c2[nH]cnc2n1 [NSC15747]

IC50 (topoisomerase II α; [6]): 85.4 µM
Compound: CCCCCSc1nc(N)nc2[nH]cnc12 [NSC35862]

IC50 (topoisomerase II α; [6]): 53.6 µM
Compound: Nc1nc(SCc2ccc(F)cc2)c2nc[nH]c2n1 [NSC35865]

IC50 (topoisomerase II α; [6]): 68.9 µM
Compound: Nc1nc(SC/C=C/c2ccccc2)c2nc[nH]c2n1 [NSC36824]

IC50 (topoisomerase II α; [6]): 34.1 µM
Compound: CNc1ncnc(Sc2nc(N)nc3[nH]cnc23)c1[N+](=O)[O-] [NSC38732]

IC50 (topoisomerase II α; [6]): 151 µM
Compound: Nc1nc(SCCCc2ccccc2)c2nc[nH]c2n1 [NSC39328]

IC50 (topoisomerase II α; [6]): 19 µM
Compound: N#CCSc1nc(N)nc2[nH]cnc12 [NSC39331]

IC50 (topoisomerase II α; [6]): 7.87 µM
Compound: CCn1c(C)nc([N+](=O)[O-])c1Sc1nc(N)nc2[nH]cnc12 [NSC42375]

IC50 (topoisomerase II α; [6]): 14.1 µM
Compound: Cc1ccc(CSc2nc(N)nc3[nH]cnc23)cc1 [NSC46384]

IC50 (topoisomerase II α; [6]): 12.7 µM
Compound: CSc1nc(Cl)c(Br)c(Sc2nc(N)nc3[nH]cnc23)n1 [NSC52383]

IC50 (topoisomerase II α; [6]): 36.4 µM
Compound: CCSc1nc(N)c(Br)c(Sc2nc(N)nc3[nH]cnc23)n1 [NSC52388]

IC50 (topoisomerase II α; [6]): 121 µM
Compound: Cn1cnc([N+](=O)[O-])c1Sc1nc(N)nc2c1ncn2C1CC(O)C(CO)O1 (stereo not shown) [NSC172614]

IC50 (topoisomerase II α; [6]): 2.74 µM
Compound: CCOC(=O)c1cc([N+](=O)[O-])c(Sc2ncnc3[nH]cnc23)c([N+](=O)[O-])c1 [NSC244708]

IC50 (topoisomerase II α; [6]): 0.389 µM
Compound: Nc1nc(Sc2cc([N+](=O)[O-])c3nonc3c2)c2ncn(C3OC(CO)C(O)C3O)c2n1 (stereo not shown) [NSC348400]

IC50 (topoisomerase II α; [6]): 0.372 µM
Compound: Nc1nc(Sc2ccc([N+](=O)[O-])c3nonc23)c2[nH]cnc2n1 [NSC348401]

IC50 (topoisomerase II α; [6]): 0.777 µM
Compound: O=[N+]([O-])c1ccc(Sc2ncnc3[nH]cnc23)c2nonc12 [NSC348402]

IC50 (topoisomerase II α; [6]): 119 µM
Compound: CC(=O)OCSc1ncnc2c1ncn2CN1CCOCC1 [NSC647471]

inhibition of ATPase activity in the presence of DTT, in words (topoisomerase II α): could inhibit ATPase activity | IC50 (topoisomerase II α; [5]): 300 µM
Compound: Nc1nc(OCC2CCCCC2)c2nc[nH]c2n1 [NU 2058, O^6-cyclohexylmethylguanine]

Compound: Nc1nc(OCc2ccccc2)c2nc[nH]c2n1 [O^6-benzylguanine]
inhibition of ATPase activity in the presence of DTT, in words (topoisomerase II α): could inhibit ATPase activity | IC50 (topoisomerase II α; [5]): 1000 µM

inhibitory effect on ATPase reaction, in words (topoisomerase II α; concentrations up to 300 μM): no detectable inhibitory effect
Compound: COc1nc(N)nc2nc[nH]c12 [O^6-methylguanine, reference compound]

inhibitory effect on ATPase reaction, in words (topoisomerase II α; concentrations up to 300 μM): no inhibitory effect
Compound: Nc1nc2c(ncn2COCCO)c(=O)[nH]1 [acyclovir, 9-[(2-hydroxyethoxy)methyl]guanine, reference compound]

Compound: Cn1cnc([N+](=O)[O-])c1Sc1ncnc2nc[nH]c12 [azathioprine, 6-(1-methyl-4-nitroimidazol-5-yl)thiopurine, reference compound]
effect on the level of etoposide-induced cytotoxicity, in words (human SCLC OC—NYH cells [2]; concentrations up to 500 μM): no detectable effect | inhibitory effect on ATPase reaction, in words (topoisomerase II α; concentration not given): capable of inhibiting topoisomerase II ATPase activity

Compound: COc1cc([C@@H]2c3cc4c(cc3[C@@H](O[C@@H]3O[C@@H]5CO[C@@H](C)O[C@H]5[C@H](O)[C@H]3O)[C@H]3COC(=O)[C@H]23)OCO4)cc(OC)c1O [etoposide, 4′-demethylepipodophyllotoxin 9-(4,6-O-ethylidene-b-D-glucopyranoside)]
DNA fragmentation by the drug alone, in words (human SCLC OC—NYH cells [3]): extensive fragmentation of DNA | effect on Δcpm with increasing concentrations, in words ([4]; ATP omitted from the reaction): no detectable increase in Δcpm | increase of the level of covalent complex formation, factor ([4]; etoposide up to 40 μM, with ATP): 6 | effect on Δcpm with increasing concentrations, in words ([4]; with ATP, FIG. 6): increase Δcpm in a dose-dependent manner

effect on Δcpm with increasing concentrations, in words ([4]; with ATP, FIG. 6): increase Δcpm in a dose-dependent manner
Compound: COc1cc(NS(C)(=O)=O)ccc1Nc1c2ccccc2nc2ccccc12 [m-AMSA, methanesulfone-m-anisidine-4′-[(9-acridinyl)amino] hydrochloride]
